Kd data for one compound are collected here from article PMC9023744, “The Cytochrome P450 OxyA from the Kistamicin Biosynthesis Cyclization Cascade is Highly Sensitive to Oxidative Damage” (Frontiers in Chemistry, 2022).

In one experiment the target is T1, OxyCkis.
T1 construct: gene OxyC; recombinant, expressed in E. coli Arctic Express; Ni-NTA, anion exchange, size exclusion
The experiment is described as follows: UV-visible difference spectroscopy titration, one-site model. It is filed as binding. The note with it: 50 mM Tris-HCl pH 8, 30°C; 2.5 µM enzyme.

The next experiment deals with T2, OxyAkis ([Actinomadura] parvosata, UniProt A0A1V0AG67).
T2 construct: gene BKM31_54160; pET28a, His-tagged, expressed in E. coli Arctic Express; Ni-NTA, anion exchange, size exclusion
T2 sequence (A0A1V0AG67 entry or part of it): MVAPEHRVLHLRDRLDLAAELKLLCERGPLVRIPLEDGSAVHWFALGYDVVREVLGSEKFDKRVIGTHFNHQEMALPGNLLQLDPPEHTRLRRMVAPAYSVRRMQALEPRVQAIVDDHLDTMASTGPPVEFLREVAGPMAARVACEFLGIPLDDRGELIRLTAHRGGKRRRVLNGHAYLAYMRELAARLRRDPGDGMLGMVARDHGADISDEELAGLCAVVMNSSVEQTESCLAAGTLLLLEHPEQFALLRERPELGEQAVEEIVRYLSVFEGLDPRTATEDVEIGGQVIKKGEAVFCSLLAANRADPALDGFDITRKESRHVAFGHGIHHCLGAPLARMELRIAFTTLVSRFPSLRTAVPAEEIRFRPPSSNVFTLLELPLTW
Described as above. It is filed as binding.

As a reminder, the Kd is the concentration at which binding is half-saturated. A low value points to tighter binding. As for `c1c[nH]cn1` [imidazole], the dissociation constant (Kd) at OxyCkis stood at 84 µM; at OxyAkis it was 120 µM.
